Values quoted from earlier work as cited in patent US20030235623A1, “Aqueous disinfecting compositions with rapid bactericidal effect” (priority 2002, published 2003).

Test system: some bacteria

## OO [Hydrogen peroxide]
  concentration known to inhibit the growth of some bacteria: 25 mg/L
